Here are results for twelve molecules from paper PMC10710878 (Journal of receptor and signal transduction research, 2022).

One experiment deals with T1, α2A-AR (Rattus norvegicus, UniProt P22909).
T1 sequence (P22909 1-465): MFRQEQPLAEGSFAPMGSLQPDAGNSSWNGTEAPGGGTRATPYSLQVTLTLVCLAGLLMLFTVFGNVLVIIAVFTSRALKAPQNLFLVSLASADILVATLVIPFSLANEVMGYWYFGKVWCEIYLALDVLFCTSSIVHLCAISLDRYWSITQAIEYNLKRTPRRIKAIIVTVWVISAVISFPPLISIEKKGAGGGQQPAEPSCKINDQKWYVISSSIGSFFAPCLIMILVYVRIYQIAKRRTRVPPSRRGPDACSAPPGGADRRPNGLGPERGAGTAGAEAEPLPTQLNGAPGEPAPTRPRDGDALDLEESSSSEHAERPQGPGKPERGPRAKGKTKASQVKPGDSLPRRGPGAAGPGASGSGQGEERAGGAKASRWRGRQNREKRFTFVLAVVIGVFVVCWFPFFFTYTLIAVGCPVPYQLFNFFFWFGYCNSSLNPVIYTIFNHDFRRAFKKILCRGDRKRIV
Format: cell-based. The following applies: for pKb (equilibrium dissociation constant, Schild x-intercept): antagonizing EPI-induced reduction of epileptiform burst discharges.

Experiment [1] deals with human α2A-AR versus α2B- or α2C-AR. The following applies: published EC50 for cloned human α2-ARs, ref Table S3; cited from earlier work.
A further experiment has as its system pyramidal cells. The conditions noted are these: modulation of α2A-AR, data not shown.
Another experiment concerns human 5-HT1A. The following applies: published pEC50, ref Table S3; cited from earlier work.

Each structure is given as a SMILES string. Counter-ions that a name gives are not always drawn. Like-named read-outs stand apart in the source and are kept apart here.

`CCC1(C2=NCCN2)Cc2ccccc2O1` (centres unmarked) [efaroxan, efaroxan hydrochloride] showed a Kb at α2A-AR of 3.72 nM.
With `Cc1cccc([C@H](C)c2cnc[nH]2)c1C` [dexmedetomidine, dexmedetomidine hydrochloride], the “α2-AR subtype selectivity in words” value in experiment [1] is on record as “no subtype selectivity”.
Regarding `COC1(C2=NCCN2)COc2ccccc2O1` (centres unmarked) [RX-821002], on α2A-AR, the “pKb (equilibrium dissociation constant, Schild x-intercept)” value (“pKb” for short) is 8.87.
Turning to `CC1c2ccccc2CN1CC1=NCCN1` (centres unmarked) [BRL-44408], the “pKb” value on α2A-AR is reported as 7.81.
As to `CN1CCN(c2ccc(Nc3c4ccccc4nc4ccccc34)cc2)CC1` [JP-1302], the “pKb” value at α2A-AR is listed as 5.23.
For `CCS(=O)(=O)N1CCC[C@@H]2CN3CCc4cc(OC)ccc4[C@@H]3C[C@@H]21` [RS-79948], the “parallel rightward shift of the control EPI concentration-response curve” value was 4 fold at α2A-AR (3 nM RS-79948), 13 fold on α2A-AR (10 nM RS-79948) and 34 fold on α2A-AR (30 nM RS-79948). For the same molecule, the “pKb” value at α2A-AR was 9.00 ± 0.16. Also, the Schild regression slope on α2A-AR (dose ratios of EPI EC50) was 0.95 ± 0.11.
On to `COc1ccccc1N1CCN(CCN2C(=O)c3ccccc3C(C)(C)C2=O)CC1` [ARC-239], for which the “pKb” value at α2A-AR amounted to 6.14.
Still for that read-out and setting: the value for `COc1cccc(OC)c1OCCNCC1COc2ccccc2O1` (centres unmarked) [WB-4101] was 7.34.
For the molecule `CN1CC[C@]2(CCN3CCc4c(oc5ccccc45)[C@@H]3C2)N(C)C1=O` [MK-912], the “pKb” value on α2A-AR was determined as 8.32.
On to `N=C(N)N/N=C/c1c(Cl)cccc1Cl` [guanabenz, guanabenz acetate], for which, on α2A-AR, the Kb was 39.8 nM.
As to `CNC[C@H](O)c1ccc(O)c(O)c1` [EPI, epinephrine], the “hyperpolarization of pyramidal cells” value in the experiment with pyramidal cells is “does not hyperpolarize pyramidal cells”.
For the molecule `Brc1c(NC2=NCCN2)ccc2nccnc12` [UK-14304], the “greater potency at α2A-ARs than α2B- or α2C-ARs” value in experiment [1] is 10 fold. Also, the “lower potency towards 5-HT1A compared with the α2A-AR” value with human 5-HT1A was 1,000 fold.
